We go through 3 compounds from patent US20090192077A1, “North-2'deoxy -methanocarbathymidines as antiviral agents for treatment of kaposi's sarcoma-associated herpes virus” (priority 2005, published 2009).

Data set [1] concerns the target EBV TK (Epstein-Barr virus, UniProt P03177). The settings on record: cited from earlier work.
In data set [2] the test system is human cellular TK. To be noted: cited from earlier work.
In data set [3] the target is HSV-1 TK (Human herpesvirus 1, UniProt P0DTH5). The settings on record: cited from earlier work.
For data set [4], the system named is CEM-SS cells. Kind of data set: Intracellular phosphorylation in uninfected CEM-SS cells. To be noted: 10 μM N-MCT, with or without PMA-stimulation. As to the method: (§1) Exponentially growing BCBL-1 cells or CEM-SS cells (a human T cell line) were washed three times with PBS and cultured in serum free AIM-V w/BSA medium (Invitrogen) at 2×10^5 cells/mL in the absence (unstimulated control) or presence of 20 ng/mL PMA. After 24 hours, unstimulated and PMA-stimulated cells were harvested, washed once with PBS and resuspended in serum free AIM-V w/BSA medium at 2×10^5 cells/mL without PMA in the absence or presence of 10 μM N-MCT, CDV or GCV and 5 μCi/mL of the corresponding radiolabeled compound [^3H]-(N)-MCT, [^3H]-CDV or [^3H]-GCV. Control cultures containing the same concentration of the test compounds but without the radiolabeled formulations were simultaneously set up in an identical manner to assess the cell counts and to evaluate their anti-KSHV activity. In selected experiments, 5′-ET was added at 10˜50 μM to investigate the changes in the anti-KSHV activity and intracellular phosphorylation profiles of the test compounds. The cells were harvested after 24 or 72 hours of incubation.
Upon harvest, the cells were centrifuged at 1,500 rpm for 10 min and washed once with cold PBS. […] Fractions containing radiolabeled nucleotides were quantitated based on the known specific activity of the parent tritiated nucleoside (Noy, R. et al. 2002 Mol Cancer Ther 1:585-93; Zalah, L. et al. 2002 Antiviral Res 55:63-75).

Data set [5] concerns BCBL-1 cells. Kind of data set: Intracellular phosphorylation in KSHV-infected BCBL-1 cells (HPLC of methanolic extracts). As for the experimental part: as §1, with “w/BSA medium at 2×10^5 cells/mL without PMA in the absence or presence of 10 μM N-MCT, CDV or GCV and 5 μCi/mL of the corresponding” left out
Upon harvest, the cells were centrifuged at 1,500 rpm for 10 min and washed once with cold PBS. The cell pellets were resuspended in 250 μL of 60% methanol and heated at 95° C. for 3 min, followed by a microcentrifugation at 12,000 g for 10 min at 4° C. The clarified supernatant fractions were evaporated under nitrogen, redissolved in 250 μL of water and subjected to HPLC separation of the phosphorylated metabolites as described in detail elsewhere (Noy, R. et al. 2002 Mol Cancer Ther 1:585-93; Zalah, L. et al. 2002 Antiviral Res 55:63-75). Fractions containing radiolabeled nucleotides were quantitated based on the known specific activity of the parent tritiated nucleoside (Noy, R. et al. 2002 Mol Cancer Ther 1:585-93; Zalah, L. et al. 2002 Antiviral Res 55:63-75).

Data set [6] deals with T1, recombinant KSHV DNA polymerase (rPOL) and polymerase processivity factor (rPPF) (Human herpesvirus 8 type P, UniProt Q2HRD0).
T1 sequence (Q2HRD0 1-1012): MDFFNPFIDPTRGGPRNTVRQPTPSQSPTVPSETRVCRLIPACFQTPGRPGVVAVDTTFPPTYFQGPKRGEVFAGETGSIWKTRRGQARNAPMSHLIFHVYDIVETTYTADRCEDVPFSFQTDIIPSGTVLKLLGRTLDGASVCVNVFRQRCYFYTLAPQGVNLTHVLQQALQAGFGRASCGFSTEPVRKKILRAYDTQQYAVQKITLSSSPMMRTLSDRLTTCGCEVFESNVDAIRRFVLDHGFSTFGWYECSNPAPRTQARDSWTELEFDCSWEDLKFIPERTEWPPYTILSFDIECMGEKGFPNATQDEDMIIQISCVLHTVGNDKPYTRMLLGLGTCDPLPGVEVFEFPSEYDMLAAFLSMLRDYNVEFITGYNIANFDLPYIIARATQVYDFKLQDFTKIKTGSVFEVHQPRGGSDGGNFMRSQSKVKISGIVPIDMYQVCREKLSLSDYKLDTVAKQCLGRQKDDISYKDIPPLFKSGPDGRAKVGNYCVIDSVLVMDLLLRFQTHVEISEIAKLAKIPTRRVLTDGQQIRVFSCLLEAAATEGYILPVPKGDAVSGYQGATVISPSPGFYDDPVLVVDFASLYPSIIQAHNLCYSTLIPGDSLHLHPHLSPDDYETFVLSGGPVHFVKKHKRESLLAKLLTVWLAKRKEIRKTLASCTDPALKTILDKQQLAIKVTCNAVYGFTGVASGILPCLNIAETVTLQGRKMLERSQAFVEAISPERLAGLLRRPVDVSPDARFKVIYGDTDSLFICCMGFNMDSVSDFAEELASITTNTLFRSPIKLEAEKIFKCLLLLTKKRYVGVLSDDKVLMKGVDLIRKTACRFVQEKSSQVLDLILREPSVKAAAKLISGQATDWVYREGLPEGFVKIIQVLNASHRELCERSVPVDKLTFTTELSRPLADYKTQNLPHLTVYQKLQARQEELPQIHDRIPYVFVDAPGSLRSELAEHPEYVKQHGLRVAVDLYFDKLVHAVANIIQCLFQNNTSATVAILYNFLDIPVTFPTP
T1 sequence (F5HID2 1-396 partner): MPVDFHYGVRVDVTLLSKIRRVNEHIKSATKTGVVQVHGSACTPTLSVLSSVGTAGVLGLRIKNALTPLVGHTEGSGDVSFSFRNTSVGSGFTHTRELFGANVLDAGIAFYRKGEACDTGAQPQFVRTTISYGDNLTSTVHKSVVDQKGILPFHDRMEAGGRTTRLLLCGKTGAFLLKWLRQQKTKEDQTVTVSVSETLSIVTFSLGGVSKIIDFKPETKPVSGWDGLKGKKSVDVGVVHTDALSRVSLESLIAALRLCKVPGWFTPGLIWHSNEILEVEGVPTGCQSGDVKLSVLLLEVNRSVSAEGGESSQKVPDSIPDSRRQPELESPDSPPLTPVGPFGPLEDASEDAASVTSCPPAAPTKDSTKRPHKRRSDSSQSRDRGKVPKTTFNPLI
To be noted: read-out: IC50 (μM) (mean ± SD), KSHV rPOL/rPPF-mediated DNA synthesis; 37° C., 60 min. As to the method: KSHV rPOL and rPPF were expressed and purified from the recombinant baculovirus-vector infected Sf9 cells (Dorjsuren, D. et al. 2003 Protein Expr Purif 29:42-50). […] The amounts of newly synthesized DNA, which incorporated DIG-dUTP, were determined by the DIG detection kit (Roche Applied Science) according to the manufacturer's instructions.

Sequence of EBV TK (P03177 whole entry): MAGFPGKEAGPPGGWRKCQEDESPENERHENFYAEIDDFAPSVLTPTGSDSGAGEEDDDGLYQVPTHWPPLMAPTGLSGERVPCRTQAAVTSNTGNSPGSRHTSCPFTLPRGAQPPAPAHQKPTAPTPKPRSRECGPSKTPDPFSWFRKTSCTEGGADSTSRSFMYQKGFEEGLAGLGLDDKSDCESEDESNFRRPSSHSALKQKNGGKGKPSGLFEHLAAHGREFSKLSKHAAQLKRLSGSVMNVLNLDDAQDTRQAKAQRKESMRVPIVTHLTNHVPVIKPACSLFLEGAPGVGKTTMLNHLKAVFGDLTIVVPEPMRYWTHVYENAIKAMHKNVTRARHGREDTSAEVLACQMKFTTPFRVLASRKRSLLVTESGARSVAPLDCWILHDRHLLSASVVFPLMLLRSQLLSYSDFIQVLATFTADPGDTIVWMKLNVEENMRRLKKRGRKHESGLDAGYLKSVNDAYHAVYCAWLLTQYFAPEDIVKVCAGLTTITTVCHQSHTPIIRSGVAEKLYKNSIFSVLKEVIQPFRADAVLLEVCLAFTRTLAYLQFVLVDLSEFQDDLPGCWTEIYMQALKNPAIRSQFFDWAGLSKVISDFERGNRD
Sequence of HSV-1 TK (P0DTH5 whole entry): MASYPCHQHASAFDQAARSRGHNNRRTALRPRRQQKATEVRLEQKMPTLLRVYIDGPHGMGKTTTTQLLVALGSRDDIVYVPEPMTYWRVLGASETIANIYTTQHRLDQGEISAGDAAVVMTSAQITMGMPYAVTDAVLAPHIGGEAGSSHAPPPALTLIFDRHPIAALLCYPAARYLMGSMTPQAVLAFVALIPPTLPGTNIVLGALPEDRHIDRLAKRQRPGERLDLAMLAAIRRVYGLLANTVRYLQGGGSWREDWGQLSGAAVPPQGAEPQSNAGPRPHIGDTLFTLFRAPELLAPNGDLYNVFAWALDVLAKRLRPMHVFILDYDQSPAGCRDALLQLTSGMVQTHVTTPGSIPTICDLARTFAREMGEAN

For the compound `C#CC(O)[C@H]1O[C@@H](n2cc(C)c(=O)[nH]c2=O)C[C@@H]1O` (stereo partly shown) [5′-ET, 5′-ethynylthymidine], the “inhibitory activity against EBV TK” value in data set [1] is reported as “strong inhibitory activity”. In addition, the “inhibitory activity against human cellular TK” value in data set [2] is “not against human cellular TK”. For the same compound, in data set [3], the “inhibitory activity against HSV-1 TK” value is “strong inhibitory activity”.
As to `Cc1cn([C@H]2C[C@H](O)[C@]3(COP(=O)(O)OP(=O)(O)OP(=O)(O)O)C[C@H]23)c(=O)[nH]c1=O` [N-MCT-TP, North-methanocarbathymidine triphosphate], the “accumulation of phosphorylated metabolite in uninfected cells” value in data set [4] is listed as “no appreciable accumulations”. Besides, the “intracellular level compared with CDV-DP and GCV-TP” value in data set [5] (10 μM of each compound, up to 72 hours, especially PMA-stimulated BCBL-1) is “significantly higher”. Moreover, the “level of phosphorylated metabolite in the presence of 50 μM 5'-ET” value in data set [5] (PMA-induced BCBL-1, 1, 3 or 10 μM N-MCT) is recorded as “substantially decreased”.
As to cidofovir diphosphate [CDV-DP], the IC50 in data set [6] was found to be 14.7 ± 2.47 µM.
